Tests used:
Assay in all cases: relative viability (nuclei count vs DMSO), 5 days (fraction); higher = more cells survive
[1] = compound: CC(C)C[C@@H](C(=O)N[C@H](C(=O)OC1CCCC1)c1ccccc1)[C@H](O)C(=O)NO [Tosedostat] + COc1cccc2cc(-c3nc([C@H]4CC[C@H](C(=O)O)CC4)n4ncnc(N)c34)[nH]c12 [OSI-027] (partner 0.5 µM)
Summary of the method: (§1)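 For relative viability, nuclei counts in treated wells were divided by those in vehicle wells. Lung cancer cell lines had been pin-tool dosed in 1536-well plates the day after seeding and cultured for 5 days, then fixed and stained in one step (final 0.05% Triton X-100, 1% formaldehyde, 1 ug/ml Hoechst) and imaged at 4×. Doses were one drug alone or a fixed anchor-drug dose plus five library-drug doses (not always all listed) in √10 steps, and values are duplicate-plate medians.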

[2] = compound: CC1=NN=C(O1)C2=NN=C(C=C2)N3CCC(CC3)OC4=C(C=CC(=C4)F)Cl + CCNC(=O)c1noc(-c2cc(C(C)C)c(O)cc2O)c1-c1ccc(CN2CCOCC2)cc1 [Luminespib] (partner 0.01 µM)
Summary of the method: as §1

[3] = compound: CC1=NN=C(O1)C2=NN=C(C=C2)N3CCC(CC3)OC4=C(C=CC(=C4)F)Cl + CS(=O)(=O)CCNCc1ccc(-c2ccc3ncnc(Nc4ccc(OCc5cccc(F)c5)c(Cl)c4)c3c2)o1 [Lapatinib] (partner 2 µM)
Summary of the method: as §1

[4] = compound: CC1=NN=C(O1)C2=NN=C(C=C2)N3CCC(CC3)OC4=C(C=CC(=C4)F)Cl + NC(=O)Nc1cc(-c2cccc(F)c2)sc1C(=O)N[C@H]1CCCNC1 [AZD7762] (partner 0.2 µM)
Summary of the method: as §1

Row | Cell Line | relative viability ([1]; first compound 0.02 µM) | relative viability ([1]; first compound 0.06325 µM) | relative viability ([1]; first compound 0.2 µM) | relative viability ([1]; first compound 0.6325 µM) | relative viability ([1]; first compound 2 µM) | relative viability ([2]; first compound 0.253 µM) | relative viability ([2]; first compound 0.8 µM) | relative viability ([2]; first compound 2.53 µM) | relative viability ([2]; first compound 8 µM) | relative viability ([3]; first compound 0.253 µM) | relative viability ([3]; first compound 0.8 µM) | relative viability ([3]; first compound 2.53 µM) | relative viability ([3]; first compound 8 µM) | relative viability ([4]; first compound 0.253 µM) | relative viability ([4]; first compound 0.8 µM) | relative viability ([4]; first compound 2.53 µM) | relative viability ([4]; first compound 8 µM)
1 | NCI-H1437 | 0.977 | 0.969 | 0.846 | 0.828 | 0.805 | 0.654 | 0.6 | 0.598 | 0.546 | 0.434 | 0.486 | 0.545 | 0.453 | 0.726 | 0.851 | 0.93 | 0.848
2 | NCI-H1651 | 0.747 | 0.801 | 0.62 | 0.708 | 0.598 | 0.738 | 0.749 | 0.685 | 0.692 | 0.695 | 0.784 | 0.691 | 0.708 | 0.423 | 0.412 | 0.448 | 0.386
3 | NCI-H1666 | 0.839 | 0.856 | 0.822 | 0.835 | 0.845 | 0.537 | 0.504 | 0.479 | 0.444 | 0.303 | 0.554 | 0.608 | 0.428 | 0.686 | 0.765 | 0.79 | 0.715
4 | NCI-H1734 | 0.593 | 0.669 | 0.64 | 0.571 | 0.564 | 0.237 | 0.206 | 0.249 | 0.189 | 0.954 | 0.683 | 0.908 | 0.882 | 0.612 | 0.413 | 0.672 | 0.662
5 | NCI-H1755 | 0.743 | 0.731 | 0.642 | 0.674 | 0.463 | 0.376 | 0.337 | 0.354 | 0.418 | 0.59 | 0.708 | 0.665 | 0.592 | 0.442 | 0.428 | 0.465 | 0.418
6 | NCI-H1792 | 0.71 | 0.68 | 0.752 | 0.729 | 1.08 | 0.34 | 0.38 | 0.419 | 0.431 | 0.417 | 0.436 | 0.404 | 0.502 | 0.535 | 0.574 | 0.689 | 0.472
7 | NCI-H1793 | 0.264 | 0.271 | 0.293 | 0.258 | 0.24 | 0.132 | 0.348 | 0.166 | 0.405 | 0.75 | 0.688 | 0.822 | 0.581 | 0.411 | 0.482 | 0.756 | 0.407
8 | NCI-H1915 | 0.659 | 0.614 | 0.643 | 0.585 | 0.532 | 0.615 | 0.393 | 0.503 | 0.312 | 0.431 | 0.334 | 0.401 | 0.322 | 0.501 | 0.276 | 0.464 | 0.381
9 | NCI-H1944 | 0.424 | 0.401 | 0.422 | 0.381 | 0.38 | 0.45 | 0.417 | 0.483 | 0.402 | 0.452 | 0.526 | 0.553 | 0.426 | 0.368 | 0.348 | 0.561 | 0.441
10 | NCI-H1975 | 0.822 | 0.743 | 0.708 | 0.552 | 0.424 | – | – | 0.224 | 0.196 | – | 0.746 | 0.859 | 0.753 | – | – | 0.717 | 0.719
11 | NCI-H1993 | 0.555 | 0.476 | 0.564 | 0.548 | 0.442 | 0.636 | 0.829 | 0.74 | 0.725 | 0.778 | 0.801 | 0.737 | 0.695 | 0.713 | 0.69 | 0.769 | 0.652
12 | NCI-H2085 | 0.555 | 0.797 | 0.704 | 0.699 | 0.673 | 0.499 | – | 0.339 | 0.216 | 0.644 | 0.627 | 0.752 | 0.612 | 0.636 | 0.667 | 0.797 | 0.607
13 | NCI-H2087 | 0.664 | 0.497 | 0.487 | 0.543 | 0.559 | 0.17 | 0.144 | 0.151 | 0.164 | 0.618 | 0.56 | 0.554 | 0.51 | 0.903 | 0.906 | 0.953 | 0.704
14 | NCI-H2126 | 0.714 | 0.786 | 0.622 | 0.614 | 0.583 | 0.826 | 0.795 | 0.734 | 0.828 | 0.552 | 0.759 | 0.702 | 0.699 | 0.893 | 0.854 | 0.929 | 0.849
15 | NCI-H2170 | 0.749 | 0.738 | 0.736 | 0.773 | 0.571 | 0.468 | 0.475 | 0.353 | 0.311 | 0.268 | 0.241 | 0.291 | 0.26 | 0.343 | 0.346 | 0.472 | 0.367
16 | NCI-H2347 | 0.364 | 0.203 | 0.459 | 0.353 | 0.427 | – | 0.433 | 0.421 | 0.459 | 0.557 | 0.631 | 0.593 | 0.535 | 0.56 | 0.572 | 0.637 | 0.489
17 | NCI-H2405 | 0.662 | 0.637 | 0.707 | 0.596 | 0.585 | 0.558 | 0.434 | 0.534 | 0.612 | 0.756 | 0.809 | 0.859 | 0.754 | 0.684 | 0.684 | 0.627 | 0.654
18 | NCI-H3122 | 1.15 | 0.985 | 1.01 | 0.963 | 0.588 | 0.0576 | 0.108 | 0.0895 | 0.0702 | 0.519 | 0.675 | 0.52 | 0.449 | 0.444 | 0.469 | 0.503 | 0.485
19 | PC-3 [JPC-3] | 0.693 | 0.828 | 0.73 | 0.614 | 0.609 | 0.674 | 0.686 | 0.611 | 0.603 | 0.404 | 0.453 | 0.445 | 0.432 | 0.702 | 0.602 | 0.728 | 0.914
20 | PC-14 | 0.959 | 0.818 | 0.637 | 0.5 | 0.449 | 0.163 | – | 0.22 | 0.142 | 0.294 | 0.31 | 0.302 | 0.313 | 0.28 | 0.271 | 0.374 | 0.253
21 | RERF-LC-KJ | 0.588 | 0.586 | 0.486 | 0.452 | 0.418 | 0.75 | 0.647 | 0.612 | 0.673 | 0.623 | 0.545 | 0.584 | 0.57 | 0.53 | 0.569 | 0.564 | 0.554
